According to BindingDB's records for doi:10.1021/acs.jmedchem.0c01420 (Ochanomizu University, 2021):

Assay: Agonist activity at VDR in human HL-60 cells assessed as induction of cell differentiation of promyelocytes to monocytes after 4 days by NBT reduction assay

| Structure (SMILES) | EC50 [nM] |
| --- | --- |
| C[C@H](CCC(=O)O)[C@H]1CC[C@H]2[C@@H]3CC[C@@H]4C[C@@H](CC(C)(C)O)CC[C@]4(C)[C@H]3CC[C@]12C | 36 |
| C[C@H](CCC(=O)O)[C@H]1CC[C@H]2[C@@H]3CC[C@@H]4C[C@H](CC(C)(C)O)CC[C@]4(C)[C@H]3CC[C@]12C | 0.53 |
